Measured values as given in patent publication US6914045B2, “Glycopeptide antibiotics” (Wyeth Holdings Corporation, priority 2001, dated 2005).
Converted amounts (≈) assume the structure as drawn.

Columns and labels:
Escherichia coli = assay: in vitro antibacterial evaluation, MIC by broth dilution; format: cell-based; conditions: 18 hours at 35° C.
Procedure, shortened: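 Broth dilution in Muller-Hinton II medium per NCCLS standard M7-A2, with an inoculum of 5×10^5 CFU/mL and antibiotic tested over 64-0.06 μg/mL. MIC was taken as the lowest concentration inhibiting visible growth.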

[1] = anatomic pathology (histopathology of heart and kidney) in mice; format: in vivo; conditions: CD-1 mice, 20 mg/kg intravenously daily for 9 days, necropsy day 10, microscopic histopathology
Experimental: Samples of tissues from necropsied mice were formalin-fixed, paraffin-embedded, sectioned, stained with hematoxylin and eosin, and examined microscopically. Histopathologic findings were recorded. These findings were subjectively graded on a scale corresponding to slight, mild, moderate, marked and severe as compared to untreated controls.

Enterococcus sp. = assay: in vitro antibacterial evaluation, MIC by broth dilution; format: cell-based; conditions: broth dilution, 18 hours at 35° C.
Procedure, shortened: (§1)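 Broth dilution per NCCLS standard M7-A2 in Muller-Hinton II […], with an inoculum of 5×10^5 CFU/mL and antibiotic spanning 64-0.06 μg/mL. The MIC is the lowest concentration that inhibits growth of the organism.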

Streptococcus sp. = assay: as above; format: cell-based; conditions: broth dilution, 18 hours at 35° C.
Procedure, shortened: as §1

Staphylococcus sp. = assay: as above; format: cell-based; conditions: broth dilution, 18 hours at 35° C.
Procedure, shortened: as §1

[2] = tested on: Staphylococcus aureus-SMITH (GC 4543); assay: acute lethal infection in mice; format: in vivo; conditions: acute lethal infection, female CD-1 mice, intraperitoneal challenge, intravenous 30 min. after infection, 7 day survival
Procedure, shortened: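 Protocol: bacteria suspended in trypticase soy broth or hog gastric mucin injected ip into female CD-1 mice at a level killing untreated controls in 24-48 hr; compound given iv in saline or 5% dextrose 30 min post-challenge; five mice per dose; ED50 derived from pooled 7 day survival of three runs.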

In the case of `CC(c1ccccc1)C1NC(=O)CNC(=O)C(CO)NC(=O)C(C(O)C2CN(Cc3ccc(C(C)(C)C)cc3)C(=N)N2C2OC(CO)C(O)C(O)C2O)NC(=O)C(C(O)C2CNC(=N)N2)NC(=O)C(Cc2ccc(OC3OC(CO)C(OC4OC5COC6(OC5C(O)C4O)C4CC5CC(C4)CC6C5)C(O)C3O)cc2)NC1=O` (centres unmarked) [Example 77], the “MIC Escherichia coli (ATCC 25922)” value (Escherichia coli) is reported as >128 µg/mL, the “MIC Escherichia coli (GC 4559)” value (Escherichia coli) is reported as >128 µg/mL and the “MIC Escherichia coli (GC 4560)” value (Escherichia coli) is reported as 4 µg/mL (≈ 2.54 µM). The “Anatomical Pathology (Day 10), Heart” value [1] was 0, the “Anatomical Pathology (Day 10), Kidney” value [1] was 0 and the “MIC Enterococcus avium (GC 4558)” value (Enterococcus sp.; Enterococcus avium (GC 4558)) was 4 µg/mL (≈ 2.54 µM). For the same molecule, the “MIC Enterococcus faecalis (ATCC 29212)” value (Enterococcus sp.; Enterococcus faecalis (ATCC 29212)) was 16 µg/mL (≈ 10.2 µM), the “MIC Enterococcus faecalis (GC 4552)” value (Enterococcus sp.; Enterococcus faecalis (GC 4552)) was 16 µg/mL (≈ 10.2 µM) and the “MIC Enterococcus faecalis (GC 4553)” value (Enterococcus sp.; Enterococcus faecalis (GC 4553)) was 8 µg/mL (≈ 5.08 µM). For the same molecule, the “MIC Enterococcus faecalis (GC 6189)” value (Enterococcus sp.; Enterococcus faecalis (GC 6189)) was 16 µg/mL (≈ 10.2 µM), the “MIC Enterococcus faecium (GC 2243)” value (Enterococcus sp.; Enterococcus faecium (GC 2243)) was 8 µg/mL (≈ 5.08 µM) and the “MIC Enterococcus faecium (GC 4556)” value (Enterococcus sp.; Enterococcus faecium (GC 4556)) was 16 µg/mL (≈ 10.2 µM). The “MIC Enterococcus faecium (GC 4557)” value (Enterococcus sp.; Enterococcus faecium (GC 4557)) was 1 to 2 µg/mL, the “MIC Enterococcus avium (GC 4558)” value (Enterococcus sp.) was 4 µg/mL (≈ 2.54 µM) and the “MIC Enterococcus faecalis (ATCC 29212)” value (Enterococcus sp.) was 16 µg/mL (≈ 10.2 µM). The “MIC Enterococcus faecalis (GC 2242)” value (Enterococcus sp.) was 16 µg/mL (≈ 10.2 µM), the “MIC Enterococcus faecalis (GC 2691)” value (Enterococcus sp.) was 16 µg/mL (≈ 10.2 µM) and the “MIC Enterococcus faecalis (GC 3059)” value (Enterococcus sp.) was 16 µg/mL (≈ 10.2 µM). The “MIC Enterococcus faecalis (GC 4552)” value (Enterococcus sp.) was 16 µg/mL (≈ 10.2 µM), the “MIC Enterococcus faecalis (GC 4553)” value (Enterococcus sp.) was 8 µg/mL (≈ 5.08 µM) and the “MIC Enterococcus faecalis (GC 4554)” value (Enterococcus sp.) was 16 to 32 µg/mL. The “MIC Enterococcus faecalis (GC 6189)” value (Enterococcus sp.) was 16 µg/mL (≈ 10.2 µM), the “MIC Enterococcus faecium (GC 2243)” value (Enterococcus sp.) was 8 µg/mL (≈ 5.08 µM) and the “MIC Enterococcus faecium (GC 4556)” value (Enterococcus sp.) was 16 µg/mL (≈ 10.2 µM). For the same molecule, the “MIC Enterococcus faecium (GC 4557)” value (Enterococcus sp.) was 1 to 2 µg/mL, the “MIC Enterococcus faecalis (GC 2242)” value (Enterococcus sp.; strain GC 2242) was 16 µg/mL (≈ 10.2 µM) and the “MIC Enterococcus faecalis (GC 2691)” value (Enterococcus sp.; strain GC 2691) was 16 µg/mL (≈ 10.2 µM). The “MIC Enterococcus faecalis (GC 3059)” value (Enterococcus sp.; strain GC 3059) was 16 µg/mL (≈ 10.2 µM), the “MIC Streptococcus agalactiae (GC 4564)” value (Streptococcus sp.) was 1 µg/mL (≈ 0.635 µM) and the “MIC Streptococcus pneumoniae (ATCC 6301)” value (Streptococcus sp.) was 2 µg/mL (≈ 1.27 µM). For the same molecule, the “MIC Streptococcus pneumoniae (GC 1894)” value (Streptococcus sp.) was 0.25 to 0.5 µg/mL, the “MIC Streptococcus pneumoniae (GC 4565)” value (Streptococcus sp.) was 2 to 4 µg/mL and the “MIC Streptococcus pyogenes (GC 4563)” value (Streptococcus sp.) was 1 µg/mL (≈ 0.635 µM). The “MIC Streptococcus pneumoniae (ATCC 6301)” value (Streptococcus sp.; strain ATCC 6301) was 2 µg/mL (≈ 1.27 µM), the “MIC Streptococcus pyogenes (GC 4563)” value (Streptococcus sp.; strain GC 4563) was 1 µg/mL (≈ 0.635 µM) and the “MIC Streptococcus agalactiae (GC 4564)” value (Streptococcus sp.; strain GC 4564) was 1 µg/mL (≈ 0.635 µM). The “MIC Streptococcus pneumoniae (GC 4565)” value (Streptococcus sp.; strain GC 4565) was 2 to 4 µg/mL, the “MIC Staphylococcus aureus (GC 1131)” value (Staphylococcus sp.; strain GC 1131) was 16 µg/mL (≈ 10.2 µM) and the “MIC Staphylococcus aureus (GC 3053)” value (Staphylococcus sp.; strain GC 3053) was 16 µg/mL (≈ 10.2 µM). For the same molecule, the “MIC Staphylococcus aureus (GC 4541)” value (Staphylococcus sp.; strain GC 4541) was 4 to 8 µg/mL, the “MIC Staphylococcus aureus-SMITH (GC 4543)” value (Staphylococcus sp.; strain GC 4543) was 8 µg/mL (≈ 5.08 µM) and the “MIC Staphylococcus aureus (GC 4544)” value (Staphylococcus sp.; strain GC 4544) was 16 µg/mL (≈ 10.2 µM). For the same molecule, the “MIC Staphylococcus aureus (GC 4545)” value (Staphylococcus sp.; strain GC 4545) was 8 µg/mL (≈ 5.08 µM), the “MIC Staphylococcus haemolyticus (GC 4546)” value (Staphylococcus sp.; strain GC 4546) was 4 to 8 µg/mL and the “MIC Coagulase Negative Staphylococcus (GC 4547)” value (Staphylococcus sp.; strain GC 4547) was 4 µg/mL (≈ 2.54 µM). The “MIC Coagulase Negative Staphylococcus (GC 4548)” value (Staphylococcus sp.; strain GC 4548) was 4 µg/mL (≈ 2.54 µM), the “MIC Coagulase Negative Staphylococcus (GC 4549)” value (Staphylococcus sp.; strain GC 4549) was 4 to 8 µg/mL and the “MIC Coagulase Negative Staphylococcus (GC 4551)” value (Staphylococcus sp.; strain GC 4551) was 8 µg/mL (≈ 5.08 µM). For the same molecule, the “MIC Coagulase Negative Staphylococcus (GC 6257)” value (Staphylococcus sp.; strain GC 6257) was 2 µg/mL (≈ 1.27 µM) and the median effective dose (ED50), Staphylococcus aureus-SMITH (GC 4543) [2] was 4 mg/kg.
